{"source": "patent US20240148671A1", "about": "“METHODS FOR IMPROVING POULTRY HEALTH” (CORNELL UNIVERSITY, priority 2021, published 2024)", "key": {"[1]": {"experiment": "Body weight, cecum weight and cecum:body weight ratio", "type": "in vivo, Gallus gallus", "settings": "intra-amniotic 1 mL/egg on day 17; at hatch (day 21); mean ± SEM, n=8", "protocol": "(§1) The pure resveratrol and pterostilbene were individually diluted in 18 MΩ H2O. The intra-amniotic administration followed the methodology previously described. On the 17th day of embryonic development, the eggs with viable embryos (n=60) were randomly allocated into 6 groups (n=10) with a similar weight frequency distribution. For the intra-amniotic treatment, 1 mL of solution per egg was injected into the amniotic fluid (via candling) with the aid of a 21-gauge needle. After the procedure, the injection sites were sealed with cellophane tape, and the eggs were distributed into six groups: (1) no injection; (2) 18 MΩ H2O; (3) 5% inulin; (4) 5% resveratrol; (5) 5% pterostilbene; and (6) synergistic: 4.75% resveratrol and 0.25% pterostilbene. […] The eggs were equally distributed in each incubator location to reduce possible allocation bias. Upon hatching (21 days), the hatchlings were euthanized by CO2 exposure, and the blood, liver, heart, pectoral muscle, small intestine and cecum were obtained."}, "hemoglobin (Hb)": {"system": "hemoglobin (Hb)", "experiment": "Blood hemoglobin (Hb) after intra-amniotic administration", "type": "in vivo, Gallus gallus", "settings": "intra-amniotic 1 mL/egg on day 17; blood at hatch (day 21); mean ± SEM", "protocol": "as §1\nBlood was collected using micro-hematocrit heparin-coated capillary tubes (Fisher Scientific, Waltham, MA, USA). The hemoglobin (Hb) concentration was assessed spectrophotometrically using the QuantiChrom™ Hb Assay (DIHB-250, BioAssay Systems, Hayward, CA, USA) and according to specific instructions."}, "[2]": {"settings": "absorption in the gut lumen, literature refs 11, 12 (Kapetanovic et al.; Walle), cited from earlier work"}, "Liver Ferritin": {"system": "Liver Ferritin", "experiment": "Liver ferritin", "type": "in vivo, Gallus gallus", "settings": "intra-amniotic 1 mL/egg on day 17, at hatch, mean ± SEM, n=5", "protocol": "as §1"}, "[3]": {"experiment": "Fe and Zn content in the serum and liver samples", "type": "in vivo, Gallus gallus", "settings": "intra-amniotic 1 mL/egg on day 17, at hatch, mean ± SEM, n=8", "protocol": "as §1\nThe serum (50 μL) and liver (0.5 g) samples were mixed with 3.0 mL of a 60:40 (v/v) solution of nitric acid (HNO3) and perchloric acid (HClO4) and incubated overnight. After this, the samples were heated for 2 hours at 120° C. and added to 0.25 mL of 40 μg/g yttrium (internal standard), and the block temperature was increased to 145° C. for 2 h and then 190° C. for 10 min. At the end of these procedures, the samples were cooled, diluted to a total volume of 20 mL, mixed and transferred into autosampler tubes for analysis (inductively coupled plasma atomic emission spectrometer) (Thermo, Franklin, MA, USA)."}, "[4]": {"system": "duodenal tissue (villi, crypts, goblet cells)", "experiment": "Morphometric examination of duodenal tissue", "type": "in vivo, Gallus gallus", "settings": "intra-amniotic 1 mL/egg on day 17, at hatch, mean ± SEM, n=5; for Depth of Crypts (μm) / Mucus Layer Width (μm) / Villus Diameter (μm) / Villus Length (μm): duodenum; for Crypt Goblet Cell Number / Goblet Cell Diameter (μM) / Villus Goblet Cell Type Number, Acidic / Villus Goblet Cell Type Number, Mixed / Villus Goblet Cell Type Number, Neutral: small intestine", "protocol": "as §1\nVillus epithelium analysis was conducted as previously published. The duodenal samples were soaked in buffered formaldehyde (4% (v/v)), dehydrated, cleared and embedded in paraffin. Numerous sections were cut with a thickness of 5 μm and put on slides. The sections were deparaffinized in xylene, after which they were rehydrated in a series of graded alcohol. Finally, the slides were stained with Alcian Blue-periodic acid-Schiff and investigated under a light microscopy. The variables were assessed (light microscope, EPIX XCAP software, standard version, Olympus, Waltham, MA, USA) for the following: villus length, villus diameter, depth of crypts, goblet cell diameter, crypt goblet cell number and villus goblet cells type number (acidic, neutral or mixed). Four segments for each biological sample and five biological samples per treatment group were examined. The goblet cells were enumerated at 10 villi/sample, and the means were calculated for statistical analysis."}, "[5]": {"experiment": "Glycogen in pectoral muscle", "type": "in vivo, Gallus gallus", "settings": "intra-amniotic 1 mL/egg on day 17, at hatch, mean ± SEM, n=8", "protocol": "as §1"}, "cecal microbiome": {"system": "cecal microbiome", "experiment": "16S rRNA gene sequencing of the cecal microbiota", "type": "in vivo, Gallus gallus", "settings": "cecal content at hatch, n=5; 5% inulin vs all other experimental groups (p<0.01); 5% pterostilbene vs 18 MΩ H2O control (p<0.05); stilbene groups among each other", "protocol": "as §1\nAs was formerly described, cecal samples were used to extract microbial genomic DNA (PowerSoil DNA isolation kit, MoBio Laboratories Ltd., Carlsbad, CA, USA). […] The PCR products were purified (Beckman Coulter, Atlanta, GA, USA) and quantified (Quant-iT PicoGreen dsDNA quantitation kit, Invitrogen, Carlsbad, CA, USA). […]\nThe 16S rRNA gene sequence analysis was performed using QIIME2 as previously described. The sequence reads were demultiplexed by per-sample barcodes, and the Divisive Amplicon Denoising Algorithm (DADA2) was used to correct the Illumina-sequenced amplicon read errors. […] The alpha and β diversity were calculated from samples containing at least 9.800 sequences. The alpha diversity parameter, a measure of the richness of the bacterial community, was calculated using the Shannon Index, and the beta diversity was assessed by a Jaccard similarity distance matrix. […]\nThe values in this paper were expressed as means and standard errors of the means (SEM). […] The results were analyzed by Analysis of Variance (ANOVA). […]"}}, "note": "“Also recorded” adds a separate entry of the source. Where two headings read alike, the source gives them in different places. Marks after values point to notes of the source that are not given here."}
{"molecule": "COc1cc(/C=C/c2ccc(O)cc2)cc(OC)c1", "note": "[5% Pterostilbene, Pterostilbene]", "values": [{"measurement": "Body Weight Average (g)", "setting": "[1]", "value": "46.7 ± 0.7^a g"}, {"measurement": "Cecum Weight Average (g)", "setting": "[1]", "value": "0.6 ± 0.1^a g"}, {"measurement": "Cecum:Body Weight Ratio", "setting": "[1]", "value": "0.013 ± 0.001^a"}, {"measurement": "Hb (g/dL)", "setting": "hemoglobin (Hb)", "value": "8.95 ± 0.77^a g/dL"}, {"measurement": "bioavailability", "setting": "[2]", "value": 80, "unit": "%"}, {"measurement": "bioavailability", "setting": "[2]; listed as pterostilbenes", "value": "about 80%"}, {"measurement": "Liver Ferritin (A.U.)", "setting": "Liver Ferritin", "value": "1.011 ± 0.351^bc A.U."}, {"measurement": "Liver Iron (μg/g)", "setting": "[3]", "value": "37.43 ± 1.52 ^ab μg/g"}, {"measurement": "Liver Zinc (μg/g)", "setting": "[3]", "value": "14.43 ± 0.49 ^b μg/g"}, {"measurement": "Serum Iron (μg/g)", "setting": "[3]", "value": "2.94 ± 0.44 ^b μg/g"}, {"measurement": "Serum Zinc (μg/g)", "setting": "[3]", "value": "1.33 ± 0.20 ^a μg/g"}, {"measurement": "Depth of Crypts (μm)", "setting": "[4]", "value": "66.41 ± 1.19^a μm"}, {"measurement": "Mucus Layer Width (μm)", "setting": "[4]", "value": "3.76 ± 0.10^e μm"}, {"measurement": "Villus Diameter (μm)", "setting": "[4]", "value": "81.33 ± 4.95^a μm"}, {"measurement": "Villus Length (μm)", "setting": "[4]", "value": "451.58 ± 11.21^b μm"}, {"measurement": "Crypt Goblet Cell Number", "setting": "[4]", "value": "10.04 ± 0.18 ^c"}, {"measurement": "Goblet Cell Diameter (μM)", "setting": "[4]", "value": "7.81 ± 0.07 ^b μM"}, {"measurement": "Villus Goblet Cell Type Number, Acidic", "setting": "[4]", "value": "10.78 ± 0.22 ^ab"}, {"measurement": "Villus Goblet Cell Type Number, Mixed", "setting": "[4]", "value": "0.28 ± 0.05 ^b"}, {"measurement": "Villus Goblet Cell Type Number, Neutral", "setting": "[4]", "value": "0.00 ± 0.00 ^b"}, {"measurement": "Glycogen (mg/g)", "setting": "[5]", "value": "0.033 ± 0.010^a mg/g"}]}
{"molecule": "inulin [5% Inulin, reference compound]", "values": [{"measurement": "Body Weight Average (g)", "setting": "[1]", "value": "49.7 ± 0.9^a g"}, {"measurement": "Cecum Weight Average (g)", "setting": "[1]", "value": "0.6 ± 0.1^a g"}, {"measurement": "Cecum:Body Weight Ratio", "setting": "[1]", "value": "0.012 ± 0.001^a"}, {"measurement": "Hb (g/dL)", "setting": "hemoglobin (Hb)", "value": "8.86 ± 0.69^a g/dL"}, {"measurement": "Liver Ferritin (A.U.)", "setting": "Liver Ferritin", "value": "0.148 ± 0.005^c A.U."}, {"measurement": "β diversity of the cecal microbiome (Jaccard distances), comparison between groups", "setting": "cecal microbiome", "value": "statistical differences; also recorded: differed"}, {"measurement": "Liver Iron (μg/g)", "setting": "[3]", "value": "48.96 ± 4.39 ^a μg/g"}, {"measurement": "Liver Zinc (μg/g)", "setting": "[3]", "value": "18.23 ± 0.88 ^ab μg/g"}, {"measurement": "Serum Iron (μg/g)", "setting": "[3]", "value": "2.76 ± 0.33 ^b μg/g"}, {"measurement": "Serum Zinc (μg/g)", "setting": "[3]", "value": "0.97 ± 0.08 ^bc μg/g"}, {"measurement": "Depth of Crypts (μm)", "setting": "[4]", "value": "51.30 ± 1.07^b μm"}, {"measurement": "Mucus Layer Width (μm)", "setting": "[4]", "value": "5.27 ± 0.13^c μm"}, {"measurement": "Villus Diameter (μm)", "setting": "[4]", "value": "44.57 ± 0.79^d μm"}, {"measurement": "Villus Length (μm)", "setting": "[4]", "value": "262.54 ± 3.76^d μm"}, {"measurement": "Crypt Goblet Cell Number", "setting": "[4]", "value": "12.27 ± 0.33 ^a"}, {"measurement": "Goblet Cell Diameter (μM)", "setting": "[4]", "value": "7.12 ± 0.06 ^d μM"}, {"measurement": "Villus Goblet Cell Type Number, Acidic", "setting": "[4]", "value": "10.65 ± 0.25 ^ab"}, {"measurement": "Villus Goblet Cell Type Number, Mixed", "setting": "[4]", "value": "0.02 ± 0.01 ^e"}, {"measurement": "Villus Goblet Cell Type Number, Neutral", "setting": "[4]", "value": "0.00 ± 0.00 ^b"}, {"measurement": "Glycogen (mg/g)", "setting": "[5]", "value": "0.029 ± 0.005^a mg/g"}]}
